Test results reported in patent publication US8697730B2, “5-lipoxygenase activating protein (FLAP) inhibitor” (Panmira Pharmaceuticals, LLC, priority 2007, dated 2014).

Legend:
[1] = Solubility in organic solvents; type: physicochemical; conditions: for solubility: 25 °C, Form C, read-out: Solubility, mg/mL at 25° C.
pH solubility profile = type: physicochemical; conditions: 25 °C, thermodynamic from solid
[2] = Regional dosing study in rat; parameters: species or system Male Sprague-Dawley rats; conditions: in vivo
CYP2C19 = CYP2C19 (Homo sapiens, UniProt P33261); test: biochemical
Sequence of CYP2C19 (P33261 whole entry): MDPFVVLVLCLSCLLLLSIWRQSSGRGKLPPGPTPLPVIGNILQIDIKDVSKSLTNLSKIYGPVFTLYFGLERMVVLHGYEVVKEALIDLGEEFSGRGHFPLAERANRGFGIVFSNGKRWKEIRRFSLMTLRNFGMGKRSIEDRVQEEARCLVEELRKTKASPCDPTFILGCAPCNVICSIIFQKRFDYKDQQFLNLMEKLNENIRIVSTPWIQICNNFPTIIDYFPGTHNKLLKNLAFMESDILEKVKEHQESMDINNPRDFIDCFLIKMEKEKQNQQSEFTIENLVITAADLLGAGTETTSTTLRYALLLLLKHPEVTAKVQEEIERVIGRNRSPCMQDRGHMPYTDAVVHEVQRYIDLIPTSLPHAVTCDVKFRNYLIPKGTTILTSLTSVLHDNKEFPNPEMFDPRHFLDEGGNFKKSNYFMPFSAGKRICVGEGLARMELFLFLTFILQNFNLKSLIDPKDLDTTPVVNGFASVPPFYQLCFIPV

CYP1A2 = biological target: T1, CYP1A2 (Homo sapiens, UniProt P05177); test: biochemical
T1 sequence (P05177 1-516): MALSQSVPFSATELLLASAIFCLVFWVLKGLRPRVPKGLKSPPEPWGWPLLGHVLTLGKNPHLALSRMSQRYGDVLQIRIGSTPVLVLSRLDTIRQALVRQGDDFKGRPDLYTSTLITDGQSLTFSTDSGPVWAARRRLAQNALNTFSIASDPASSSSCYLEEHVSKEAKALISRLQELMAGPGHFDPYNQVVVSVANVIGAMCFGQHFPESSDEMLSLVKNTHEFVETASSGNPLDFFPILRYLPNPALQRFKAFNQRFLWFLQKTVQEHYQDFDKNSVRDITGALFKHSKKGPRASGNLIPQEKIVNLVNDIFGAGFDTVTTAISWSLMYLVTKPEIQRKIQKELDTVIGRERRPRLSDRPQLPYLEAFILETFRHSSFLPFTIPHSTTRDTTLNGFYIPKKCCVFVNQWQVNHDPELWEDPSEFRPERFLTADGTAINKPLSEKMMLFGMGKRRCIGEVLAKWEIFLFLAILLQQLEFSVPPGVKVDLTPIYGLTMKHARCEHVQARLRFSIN

CYP2D6 = CYP2D6 (Homo sapiens, UniProt P10635); test: biochemical
Sequence of CYP2D6 (P10635 whole entry): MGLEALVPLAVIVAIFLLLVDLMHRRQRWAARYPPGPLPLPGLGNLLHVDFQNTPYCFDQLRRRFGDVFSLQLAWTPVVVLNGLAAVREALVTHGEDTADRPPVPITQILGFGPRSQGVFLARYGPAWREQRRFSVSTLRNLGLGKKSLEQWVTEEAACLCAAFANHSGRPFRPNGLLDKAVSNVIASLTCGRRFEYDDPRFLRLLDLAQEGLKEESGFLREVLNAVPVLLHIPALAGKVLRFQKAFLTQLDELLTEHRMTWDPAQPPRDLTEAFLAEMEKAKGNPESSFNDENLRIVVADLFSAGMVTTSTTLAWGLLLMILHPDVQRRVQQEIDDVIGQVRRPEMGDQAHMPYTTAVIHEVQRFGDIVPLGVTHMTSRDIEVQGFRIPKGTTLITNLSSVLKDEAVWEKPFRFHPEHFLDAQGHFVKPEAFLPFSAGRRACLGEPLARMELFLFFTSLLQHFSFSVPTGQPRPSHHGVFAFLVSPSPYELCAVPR

[3] = tested on: whole blood ionophore-stimulated leukotriene LTB4; test: Phase 1 study, whole blood ionophore-stimulated LTB4; type: in vivo, human
Protocol: (§1) Pharmacodynamics: Whole blood ionophore-stimulated leukotriene LTB4 and urinary LTE4 production are assayed by ELISA and mass spectrometry, respectively.
(§2) Obtain pre-dose fasting blood samples for hematology determinations. Obtain pre-dose fasting blood samples for serum chemistry determinations. Obtain pre-dose blood samples (5 mL EDTA and 4 mL heparinized) for baseline PK and LTB4. Collect ‘spot’ urine prior to study drug administration for baseline (pre-dose) LTE4. Administer study drug. […] Collect blood samples (2 mL heparinized) for LTB4 at 0.5, 1, 2, 3, 4, 6, 8, and 12 hours. Collect urine for LTE4 for the following separate intervals: 0-3, 3-6, 6-9, and 9-12 hours. For twice daily dosing group (if conducted): administer study drug 12 hours±30 minutes after prior dose, preceded by ≧2 hours fast.
(§3) Obtain pre-dose fasting blood samples for hematology determinations. Obtain pre-dose fasting blood samples for serum chemistry determinations. […] Collect blood samples (2 mL heparinized) for LTB4 at 24 hours after the first study drug administration; 4 mL blood will be collected at this time point in the Single Dose Phase. Collect ‘spot’ urine sample for LTE4 at 24 and 36 hours after first study drug administration.
(§4) Obtain pre-dose blood samples (5 mL EDTA and 2 mL heparinized) for PK and LTB4. Collect pre-dose urine for LTE4. Administer study drug (last dose of drug). […] Collect blood samples (2 mL heparinized) for LTB4 at 0.5, 1, 2, 3, 4, 6, 8, and 12 hours. Collect urine for LTE4 for the following separate intervals: 0-3, 3-6, 6-9, and 9-12 hours after study drug administration.
(§5) Record vital signs 24 hours after Day 11 study drug administration. […] Collect blood sample (4 mL heparinized) for LTB4 at 24 hours after Day 11 study drug administration. Collect ‘spot’ urine sample for LTE4 at 24 hours after Day 11 study drug administration.
(§6) Whole blood ionophore-stimulated leukotriene LTB4 and urinary LTE4 production were assayed by ELISA and mass spectrometry, respectively.

CYP3A4 = CYP3A4 (Homo sapiens, UniProt P08684); test: biochemical
Sequence of CYP3A4 (P08684 whole entry): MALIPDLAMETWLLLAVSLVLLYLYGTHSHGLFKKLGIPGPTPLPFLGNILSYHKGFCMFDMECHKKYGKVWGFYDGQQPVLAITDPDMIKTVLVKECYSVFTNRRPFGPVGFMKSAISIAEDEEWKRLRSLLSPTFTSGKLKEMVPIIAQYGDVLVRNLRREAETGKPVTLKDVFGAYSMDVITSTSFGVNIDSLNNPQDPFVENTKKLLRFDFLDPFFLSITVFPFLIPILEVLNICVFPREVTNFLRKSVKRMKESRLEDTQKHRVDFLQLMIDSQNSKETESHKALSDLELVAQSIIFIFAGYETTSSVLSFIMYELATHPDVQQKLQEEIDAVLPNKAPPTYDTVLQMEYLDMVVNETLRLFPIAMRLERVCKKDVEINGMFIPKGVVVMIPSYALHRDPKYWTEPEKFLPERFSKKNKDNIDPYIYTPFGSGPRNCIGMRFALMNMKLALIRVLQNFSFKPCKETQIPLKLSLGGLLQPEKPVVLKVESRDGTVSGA

urinary LTE4 production = test: Phase 1 study, urinary LTE4; type: in vivo, human
Protocol: as §1, §2, §3, §4, §5, §6

CYP2C9 = CYP2C9 (Homo sapiens, UniProt P11712); test: biochemical
Sequence of CYP2C9 (P11712 whole entry): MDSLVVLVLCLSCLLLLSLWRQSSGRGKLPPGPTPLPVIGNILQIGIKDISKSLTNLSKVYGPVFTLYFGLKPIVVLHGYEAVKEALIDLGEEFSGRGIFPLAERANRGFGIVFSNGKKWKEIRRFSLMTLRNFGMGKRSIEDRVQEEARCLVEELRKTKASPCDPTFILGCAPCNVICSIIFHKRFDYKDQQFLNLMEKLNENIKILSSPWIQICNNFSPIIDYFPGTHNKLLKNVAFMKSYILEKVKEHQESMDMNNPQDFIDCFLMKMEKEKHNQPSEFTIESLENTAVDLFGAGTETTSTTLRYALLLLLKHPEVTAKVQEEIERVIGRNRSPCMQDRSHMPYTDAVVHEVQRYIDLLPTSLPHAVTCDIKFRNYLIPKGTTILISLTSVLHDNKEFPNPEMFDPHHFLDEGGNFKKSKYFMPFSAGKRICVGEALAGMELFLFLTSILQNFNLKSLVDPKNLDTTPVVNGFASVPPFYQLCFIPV

in vivo = test: in vivo; parameters: species or system female Beagle dogs; conditions: dog
Protocol: For comparison, an IV formulation was also tested. Table 18 summarizes the results of the experiments of administration of the various oral formulations to female beagle dogs.

[4] = multiple dose, 450 mg daily, Day 1
[5] = multiple dose, 450 mg daily, Day 11
[6] = multiple dose, 1000 mg daily, Day 1
[7] = multiple dose, 1000 mg daily, Day 11
[8] = single dose 50 mg, oral solution
[9] = single dose 150 mg, oral solution
[10] = single dose 300 mg, oral solution
[11] = single dose 600 mg, oral solution
[12] = single dose 1000 mg, oral solution

Work on `COc1ccc(-c2ccc(Cn3c(CC(C)(C)C(=O)O)c(SC(C)(C)C)c4cc(OCc5ccccn5)ccc43)cc2)cn1` [sodium 3-[5-(pyridin-2-ylmethoxy)-3-(2-methyl-2-propylthio)-1-[4-(2-methoxypyridin-5-yl)benzyl]-indol-2-yl]-2,2-dimethyl-propionate] yielded a solubility ([1]; aqueous with cosolvent or surfactant or cyclodextrin, 0.5% Methylcellulose/water) of 9.3 mg/mL, a solubility ([1]; organic solvent or mixture, Acetonitrile) of 0.2 mg/mL and a solubility ([1]; organic solvent or mixture, Ethanol) of 17.1 mg/mL. The solubility ([1]; organic solvent or mixture, Isopropanol) was 1.1 mg/mL, the solubility ([1]; organic solvent or mixture, Methanol) was > 50 mg/mL and the solubility ([1]; organic solvent or mixture, Propylene glycol) was 13.4 mg/mL. The solubility in words ([1]; acetonitrile) was “sparingly soluble”, the solubility in words ([1]; isopropanol) was “sparingly soluble” and the solubility in words ([1]; methanol) was “very soluble”. The solubility (pH solubility profile; aqueous medium, aqueous buffer, about pH 7, read-out: aqueous solubility) was < 0.005 mg/mL, the solubility (pH solubility profile; basic media, pH 10, aqueous buffer, read-out: solubility in basic media) was > 70 mg/mL and the “site of absorption in words” value [2] was “mainly absorbed in the upper gastrointestinal tract”. For the same compound, the IC50 (CYP2C19) was 22 µM, the IC50 (CYP1A2) was > 50 µM and the IC50 (CYP2D6) was > 50 µM. For the same compound, the “LTB4 level at t = 24 hrs. (% of baseline)” value (“LTB4 level … (% of baseline)” below) [3, 4] was 24 ± 6.7 % of baseline, the “LTB4 level … (% of baseline)” value [3, 5] was 26 ± 7.4 % of baseline and the “LTB4 level … (% of baseline)” value [3, 6] was 2.7 ± 1.1 % of baseline. The “LTB4 level … (% of baseline)” value [3, 7] was 1.0 ± 0.6 % of baseline, the “LTB4 level … (% of baseline)” value [3, 8] was 75 ± 15 % of baseline and the “LTB4 level … (% of baseline)” value [3, 9] was 58 ± 18 % of baseline. The “LTB4 level … (% of baseline)” value [3, 10] was 36 ± 6.5 % of baseline, the “LTB4 level … (% of baseline)” value [3, 11] was 25 ± 8.7 % of baseline and the “LTB4 level … (% of baseline)” value [3, 12] was 23 ± 12 % of baseline. The IC50 (CYP3A4) was > 50 µM, the “LTE4 level at t = 24 hrs. (% of baseline)” value (from here on “LTE4 level … (% of baseline)”) (urinary LTE4 production; [4]) was 8.2 ± 4.3 % of baseline and the “LTE4 level … (% of baseline)” value (urinary LTE4 production; [5]) was 2.8 ± 0.9 % of baseline. For the same compound, the “LTE4 level … (% of baseline)” value (urinary LTE4 production; [6]) was 2.5 ± 0.6 % of baseline, the “LTE4 level … (% of baseline)” value (urinary LTE4 production; [7]) was 2.3 ± 0.6 % of baseline and the “LTE4 level … (% of baseline)” value (urinary LTE4 production; [8]) was 77 ± 26 % of baseline. The “LTE4 level … (% of baseline)” value (urinary LTE4 production; [9]) was 23 ± 10 % of baseline, the “LTE4 level … (% of baseline)” value (urinary LTE4 production; [10]) was 10 ± 5 % of baseline and the “LTE4 level … (% of baseline)” value (urinary LTE4 production; [11]) was 8 ± 3 % of baseline. The “LTE4 level … (% of baseline)” value (urinary LTE4 production; [12]) was 3 ± 0 % of baseline, the IC50 (CYP2C9) was ≥ 50 µM and the AUCdose-adjusted (in vivo; iv, 2 mg/kg) was 6.0. The AUC(0-inf) (in vivo; female, Beagle, iv, 2 mg/kg) was 11900 ng·h/mL, the “CLp” value (in vivo; female, Beagle, iv, 2 mg/kg) was 2.9 mL/min/kg and the Cmax (in vivo; female, Beagle, iv, 2 mg/kg) was 3200 ng/mL. For the same compound, the Tmax (in vivo; female, Beagle, iv, 2 mg/kg) was 1.02 min, the Vd (in vivo; female, Beagle, iv, 2 mg/kg) was 0.4 L/kg and the bioavailability (in vivo; female, Beagle, iv, 2 mg/kg) was 100%. The half-life (in vivo; female, Beagle, iv, 2 mg/kg) was 462 min and the Tmax (in vivo; female, Beagle, po, 5 mg/kg) was 102 min.
